Patent US7709444B2, “Echinocandin pharmaceutical formulations containing micelle-forming surfactants” (Pfizer Inc., priority 1999, dated 2010)
*1 amine or outer side, *2 acyl side, *3 side chain or, on linkers, in order; H or OH if unused. Where a SMILES comes first, the peptide text is derived from it. Bridges are numbered along the chain shown (N, C = ends). [ ]: non-standard residue; d: D form. The star is where a group is joined. ξ: configuration not given here. pTerphenylCO(4''-OnC5H11) = CCCCCOc1ccc(-c2ccc(-c3ccc(C(=O)*)cc3)cc2)cc1; ξOrn(4,5-diOH) = O=C(C(CC(O)C(O)N[*:3])N[*:1])[*:2]; ξhTyr(βξ-OH,γξ-OH) = NC(C(=O)O)C(O)C(O)c1ccc(O)cc1; ξPro(3ξ-OH,4ξ-Me) = CC1CNC(C(=O)O)C1O; Hyp = O=C(O)[CH]1C[CH](O)CN1

How the values were obtained:
[1] = Solubility studies of Com 6(a) in surfactant test solutions, reverse phase HPLC; format: physicochemical; settings: room temperature
Procedure: Solubility studies were performed at room temperature by transferring 5 ml of test solution (surfactant in water optionally containing a bulking agent, a buffer or a stabilizing agent) and 50 mg of Com 6(a) into a glass test tube. The test tubes were agitated overnight and examined for excess solid. Test tubes containing excess solid were removed for analysis. […] All samples were allowed to stand 1 h, supernatant was removed, filtered and analyzed by reverse phase HPLC to determine the potency of Com 6(a) per Ml of solution.

[2] = Stability of freeze-dried formulations, related substances by reverse phase HPLC, storage at 40° C.; format: physicochemical
Procedure: The stability of solution and freeze-dried formulations was evaluated by monitoring a sample of the formulation for the percent increase in related substances by reverse phase HPLC at initial, 2 weeks and 4 weeks of storage at 40° C.

Question: Which “Comp6(a) Potency (solubility)” value ([1]; Poly 20 [5]/pluronic F68 [10]) does the source give for CCCCCOc1ccc(-c2ccc(-c3ccc(C(=O)NC4CC(O)C(O)NC(=O)C5C(O)C(C)CN5C(=O)C(C(C)O)NC(=O)C(C(O)C(O)c5ccc(O)cc5)NC(=O)C5CC(O)CN5C(=O)C(C(C)O)NC4=O)cc3)cc2)cc1 (stereo not drawn) [Compound 6(a)] ({pTerphenylCO(4''-OnC5H11)}-[ξOrn(4,5-diOH)]T[Hyp][ξhTyr(βξ-OH,γξ-OH)]T[ξPro(3ξ-OH,4ξ-Me)]; lactam 1-C; configuration not given here) here?
Answer: 1130 µg/mL

Question: What about the “Comp6(a) Potency (solubility)” value ([1]; Poly 80 [5]) of the same compound?
Answer: 1000 µg/mL

Question: What about the “Comp6(a) Potency (solubility)” value ([1]; Poly 80 [10]) of the same compound?
Answer: 4400 µg/mL

Question: And the “Comp6(a) Potency (solubility)” value ([1]; Poly 80 [15])?
Answer: 7200 µg/mL

Question: What about the “Comp6(a) Potency (solubility)” value ([1]; Poly 80 [20]/sodium taurodeoxycholate [20]) of the same compound?
Answer: 43120 µg/mL

Question: What about the “Comp6(a) Potency (solubility)” value ([1]; Poly 80 [25]) of the same compound?
Answer: 13200 µg/mL

Question: And the “Comp6(a) Potency (solubility)” value ([1]; Sur None)?
Answer: <100 µg/mL

Question: What about the “Comp6(a) Potency (solubility)” value ([1]; ethoxylated castor oil (cremophor EL) [25]) of the same compound?
Answer: 11000 µg/mL

Question: And the “% Related Substances” value ([2]; 6(a) Potency 1, Poly 80(25), Cit(1.9), Man(50), 0 wks)?
Answer: 3.22%

Question: And the “% Related Substances” value ([2]; 6(a) Potency 1, Poly 80(25), Cit(1.9), Man(50), 2 wks)?
Answer: 10.24%

Question: What about the “% Related Substances” value ([2]; 6(a) Potency 1, Poly 80(25), Cit(1.9), Man(50), 4 wks) of the same compound?
Answer: 12.16%

Question: What about the “% Related Substances” value ([2]; 6(a) Potency 1, Poly 80(25), Cit(9.6), Man(50), 0 wks) of the same compound?
Answer: 3.36%

Question: And the “% Related Substances” value ([2]; 6(a) Potency 1, Poly 80(25), Cit(9.6), Man(50), 2 wks)?
Answer: 11.74%

Question: What about the “% Related Substances” value ([2]; 6(a) Potency 1, Poly 80(25), Cit(9.6), Man(50), 4 wks) of the same compound?
Answer: 18.63%

Question: And the “% Related Substances” value ([2]; 6(a) Potency 1, Poly 80(25), Cit(19.2), Man(50), 0 wks)?
Answer: 3.37%

Question: What about the “% Related Substances” value ([2]; 6(a) Potency 1, Poly 80(25), Cit(19.2), Man(50), 2 wks) of the same compound?
Answer: 17.29%

Question: And the “% Related Substances” value ([2]; 6(a) Potency 1, Poly 80(25), Cit(19.2), Man(50), 4 wks)?
Answer: 22.61%

Question: What about the “% Related Substances” value ([2]; 6(a) Potency 5, Poly 80(12.5), no B, Lac(10), Man(50), 0 wks) of the same compound?
Answer: 6.42%

Question: And the “% Related Substances” value ([2]; 6(a) Potency 5, Poly 80(12.5), no B, Lac(10), Man(50), 2 wks)?
Answer: 6.98%

Question: What about the “% Related Substances” value ([2]; 6(a) Potency 5, Poly 80(12.5), no B, Lac(10), Man(50), 4 wks) of the same compound?
Answer: 6.85%

Question: And the “% Related Substances” value ([2]; 6(a) Potency 8, Poly 80 (20), no B, Lac(10), Man(50), 0 wks)?
Answer: 5.99%

Question: And the “% Related Substances” value ([2]; 6(a) Potency 8, Poly 80 (20), no B, Lac(10), Man(50), 2 wks)?
Answer: 6.16%

Question: What about the “% Related Substances” value ([2]; 6(a) Potency 8, Poly 80 (20), no B, Lac(10), Man(50), 4 wks) of the same compound?
Answer: 5.74%

Question: What about the “% Related Substances” value ([2]; 6(a) Potency 10, Poly 80(25), Cit(9.6), Suc(5), Man(50), 0 wks) of the same compound?
Answer: 3.70%

Question: What about the “% Related Substances” value ([2]; 6(a) Potency 10, Poly 80(25), Cit(9.6), Suc(5), Man(50), 2 wks) of the same compound?
Answer: 5.60%

Question: What about the “% Related Substances” value ([2]; 6(a) Potency 10, Poly 80(25), Cit(9.6), Suc(5), Man(50), 4 wks) of the same compound?
Answer: 6.01%

Question: And the “% Related Substances” value ([2]; 6(a) Potency 10, Poly 80(25), Cit(9.6), Suc(10), Man(50), 0 wks)?
Answer: 3.77%

Question: And the “% Related Substances” value ([2]; 6(a) Potency 10, Poly 80(25), Cit(9.6), Suc(10), Man(50), 2 wks)?
Answer: 5.41%

Question: And the “% Related Substances” value ([2]; 6(a) Potency 10, Poly 80(25), Cit(9.6), Suc(10), Man(50), 4 wks)?
Answer: 5.88%

Question: And the “% Related Substances” value ([2]; 6(a) Potency 10, Poly 80(25), Cit(9.6), Suc(50), no BA, 0 wks)?
Answer: 3.60%

Question: And the “% Related Substances” value ([2]; 6(a) Potency 10, Poly 80(25), Cit(9.6), Suc(50), no BA, 2 wks)?
Answer: 5.4%

Question: And the “% Related Substances” value ([2]; 6(a) Potency 10, Poly 80(25), Cit(9.6), Suc(50), no BA, 4 wks)?
Answer: 6.01%

Question: And the “% Related Substances” value ([2]; 6(a) Potency 10, Poly 80(25), Cit(9.6), Tre(50), no BA, 0 wks)?
Answer: 3.73%

Question: What about the “% Related Substances” value ([2]; 6(a) Potency 10, Poly 80(25), Cit(9.6), Tre(50), no BA, 2 wks) of the same compound?
Answer: 4.83%

Question: And the “% Related Substances” value ([2]; 6(a) Potency 10, Poly 80(25), Cit(9.6), Tre(50), no BA, 4 wks)?
Answer: 6.19%

Question: What about the “% Related Substances” value ([2]; 6(a) Potency 10, Poly 80(25), Tar(1.13), Fru(10), Man(50), 0 wks) of the same compound?
Answer: 2.49%

Question: What about the “% Related Substances” value ([2]; 6(a) Potency 10, Poly 80(25), Tar(1.13), Fru(10), Man(50), 4 wks) of the same compound?
Answer: 2.42%

Question: What about the “% Related Substances” value ([2]; 6(a) Potency 10, Poly 80(25), no B, Lac(10), Man(50) (first of two identical lines), 0 wks) of the same compound?
Answer: 4.56%

Question: What about the “% Related Substances” value ([2]; 6(a) Potency 10, Poly 80(25), no B, Lac(10), Man(50) (first of two identical lines), 2 wks) of the same compound?
Answer: 4.51%

Question: And the “% Related Substances” value ([2]; 6(a) Potency 10, Poly 80(25), no B, Lac(10), Man(50) (first of two identical lines), 4 wks)?
Answer: 4.85%

Question: What about the “% Related Substances” value ([2]; 6(a) Potency 10, Poly 80(25), no B, Lac(10), Man(50) (second of two identical lines), 0 wks) of the same compound?
Answer: 4.06%

Question: And the “% Related Substances” value ([2]; 6(a) Potency 10, Poly 80(25), no B, Lac(10), Man(50) (second of two identical lines), 2 wks)?
Answer: 5.47%

Question: What about the “% Related Substances” value ([2]; 6(a) Potency 10, Poly 80(25), no B, Lac(10), Man(50) (second of two identical lines), 4 wks) of the same compound?
Answer: 5.17%

Question: What about the “% Related Substances” value ([2]; 6(a) Potency 10, Poly 80(25), no B, PEG6000(10), Man(50), 0 wks) of the same compound?
Answer: 4.13%

Question: What about the “% Related Substances” value ([2]; 6(a) Potency 10, Poly 80(25), no B, PEG6000(10), Man(50), 2 wks) of the same compound?
Answer: 4.47%

Question: What about the “% Related Substances” value ([2]; 6(a) Potency 10, Poly 80(25), no B, PEG6000(10), Man(50), 4 wks) of the same compound?
Answer: 8.11%

Question: And the “% Related Substances” value ([2]; 6(a) Potency 10, Poly 80(25), no B, PEG8000(10), Man(50), 0 wks)?
Answer: 3.97%

Question: And the “% Related Substances” value ([2]; 6(a) Potency 10, Poly 80(25), no B, PEG8000(10), Man(50), 2 wks)?
Answer: 4.23%

Question: What about the “% Related Substances” value ([2]; 6(a) Potency 10, Poly 80(25), no B, PEG8000(10), Man(50), 4 wks) of the same compound?
Answer: 6.73%

Question: And the “% Related Substances” value ([2]; 6(a) Potency 10, Poly 80(25), no B, Suc(10), Man(50), 0 wks)?
Answer: 4.26%

Question: What about the “% Related Substances” value ([2]; 6(a) Potency 10, Poly 80(25), no B, Suc(10), Man(50), 2 wks) of the same compound?
Answer: 4.82%

Question: What about the “% Related Substances” value ([2]; 6(a) Potency 10, Poly 80(25), no B, Suc(10), Man(50), 4 wks) of the same compound?
Answer: 4.49%

Question: And the “% Related Substances” value ([2]; 6(a) Potency 10, Poly 80(25), no B, no SA, Man(50), 0 wks)?
Answer: 3.98%

Question: What about the “% Related Substances” value ([2]; 6(a) Potency 10, Poly 80(25), no B, no SA, Man(50), 2 wks) of the same compound?
Answer: 4.85%

Question: And the “% Related Substances” value ([2]; 6(a) Potency 10, Poly 80(25), no B, no SA, Man(50), 4 wks)?
Answer: 5.45%
